Source: ChEMBL document CHEMBL5506037, “Synthesis of Heterocyclic Ring-Fused Bisnoralcohol Derivatives as Novel Small-Molecule Antiosteoporosis Agents” (J Med Chem, 2024)
Calls of active or inactive are those of the source. The calls are words filed in the database; no cut-off is given here.

Experiments:
BMMC [1] = experiment: Anti-osteoclastogenesis activity in M-CSF/RANKL-induced C57BL/6J mouse BMMC cells assessed as inhibition of FCGR3 gene expression by RNA sequencing analysis; type: functional, cell-based
BMMC [2] = experiment: Anti-osteoclastogenesis activity in M-CSF/RANKL-induced C57BL/6J mouse BMMC cells assessed as reduction in c-Fos protein expression measured after 3 days by Western blot analysis; type: functional, cell-based; conditions: dose 0.05-5 µM, time 3.0 day
Mus musculus [3] = experiment: Anti-osteoporosis activity in ovariectomized C57BL/6 mouse assessed as prevention of bone loss by measuring recovery of trabecular spacing in femur at 0.6 mg/kg, ip administered every day for 6 weeks by 3D-imaging analysis relative to control; type: functional
BMMC [4] = experiment: Anti-osteoclastogenesis activity in M-CSF/RANKL-induced C57BL/6J mouse BMMC cells assessed as reduction in osteoclast generation at 0.5 uM incubated for 7 days by TRAP staining based analysis relative to control; type: functional; set-up: scale not given: the % may be the effect or the level left; conditions: time 7 day
BMMC [5] = experiment: Anti-osteoclastogenesis activity in M-CSF/RANKL-induced C57BL/6J mouse BMMC cells assessed as inhibition of osteoclast differentiation at late stage at 0.1 uM measured after 5 to 7 days by TRAP staining based analysis relative to control; type: functional; conditions: time 5-7 day
Mus musculus [6] = experiment: Anti-osteoporosis activity in ovariectomized C57BL/6 mouse assessed as prevention of bone loss by measuring recovery of trabecular number in femur at 0.6 mg/kg, ip administered every day for 6 weeks by 3D-imaging analysis relative to control; type: functional
[7] = Cmax in ICR mouse at 1 mg/kg, iv measured upto 24 hrs by LC-MS/MS analysis; type: ADME, organism-based; conditions: in vivo
BMMC [8] = experiment: Anti-osteoclastogenesis activity in M-CSF/RANKL-induced C57BL/6J mouse BMMC cells assessed as reduction in TRAF6 mRNA expression at 0.05 to 5 uM measured after 2 days by RT-qPCR analysis; type: functional, cell-based; conditions: dose 0.05-5 µM, time 2.0 day
Mus musculus [9] = experiment: Anti-osteoporosis activity in ovariectomized C57BL/6 mouse assessed as prevention of bone loss by measuring reduction in osteoclast formation at 0.6 mg/kg, ip administered every day for 6 weeks by TRAP staining based analysis; type: functional, organism-based
BMMC [10] = experiment: Anti-osteoclastogenesis activity in M-CSF/RANKL-induced C57BL/6J mouse BMMC cells assessed as inhibition of Mapk12 gene expression by RNA sequencing analysis; type: functional, cell-based
BMMC [11] = experiment: Anti-osteoclastogenesis activity in M-CSF/RANKL-induced C57BL/6J mouse BMMC cells assessed as reduction in CTSK mRNA expression at 0.05 to 5 uM measured after 2 days by RT-qPCR analysis; type: functional, cell-based; conditions: dose 0.05-5 µM, time 2.0 day
[12] = Apparent volume of distribution in ICR mouse at 1 mg/kg, iv measured upto 24 hrs by LC-MS/MS analysis; type: ADME, organism-based; conditions: in vivo, read-out: Vz
BMMC [13] = experiment: Anti-osteoclastogenesis activity in M-CSF/RANKL-induced C57BL/6J mouse BMMC cells assessed as inhibition of osteoclast differentiation incubated for 7 days by TRAP staining based analysis; type: functional, cell-based; conditions: 168 h
BMMC [14] = experiment: Potency index, ratio of bisnoralcohol IC50 to test compound IC50 for anti-osteoclastogenesis activity in M-CSF/RANKL-induced C57BL/6J mouse BMMC cells assessed as inhibition of osteoclast differentiation incubated for 7 days by TRAP staining based analysis; type: functional; conditions: time 7 day
Mus musculus [15] = experiment: Anti-osteoporosis activity in ovariectomized C57BL/6 mouse assessed as prevention of bone loss by measuring reduction in osteoclast formation at 0.6 mg/kg, ip administered every day for 6 weeks by H and E staining based analysis; type: functional, organism-based
BMMC [16] = experiment: Anti-osteoclastogenesis activity in M-CSF/RANKL-induced C57BL/6J mouse BMMC cells assessed as reduction in osteoclast generation at 0.05 uM incubated for 7 days by TRAP staining based analysis relative to control; type: functional; set-up: scale not given: the % may be the effect or the level left; conditions: time 7 day
BMMC [17] = experiment: Anti-osteoclastogenesis activity in M-CSF/RANKL-induced C57BL/6J mouse BMMC cells assessed as inhibition of Oscar gene expression by RNA sequencing analysis; type: functional, cell-based
BMMC [18] = experiment: Anti-osteoclastogenesis activity in M-CSF/RANKL-induced C57BL/6J mouse BMMC cells assessed as inhibition of osteoclast differentiation at 1 uM incubated for 7 days by TRAP staining based analysis relative to control; type: functional; conditions: 168 h, time 7 day
BMMC [19] = experiment: Anti-osteoclastogenesis activity in M-CSF/RANKL-induced C57BL/6J mouse BMMC cells assessed as inhibition of Il1b gene expression by RNA sequencing analysis; type: functional, cell-based
BMMC [20] = experiment: Anti-osteoclastogenesis activity in M-CSF/RANKL-induced C57BL/6J mouse BMMC cells assessed as inhibition of Traf6 gene expression by RNA sequencing analysis; type: functional, cell-based
BMMC [21] = experiment: Anti-osteoclastogenesis activity in M-CSF/RANKL-induced C57BL/6J mouse BMMC cells assessed as inhibition of osteoclast differentiation at 0.1 uM incubated for 7 days by TRAP staining based analysis relative to control; type: functional; conditions: 168 h, time 7 day
BMMC [22] = experiment: Anti-osteoclastogenesis activity in M-CSF/RANKL-induced C57BL/6J mouse BMMC cells assessed as inhibition of osteoclast differentiation at early stage at 0.1 uM measured after 1 to 3 days by TRAP staining based analysis relative to control; type: functional; conditions: time 1-3 day
BMMC [23] = experiment: Anti-osteoclastogenesis activity in M-CSF/RANKL-induced C57BL/6J mouse BMMC cells assessed as inhibition of Fosl2 gene expression by RNA sequencing analysis; type: functional, cell-based
BMMC [24] = experiment: Anti-osteoclastogenesis activity in M-CSF/RANKL-induced C57BL/6J mouse BMMC cells assessed as inhibition of Acp5 gene expression by RNA sequencing analysis; type: functional, cell-based
BMMC [25] = experiment: Anti-osteoclastogenesis activity in M-CSF/RANKL-induced C57BL/6J mouse BMMC cells assessed as inhibition of Fosl1 gene expression by RNA sequencing analysis; type: functional, cell-based
[26] = Tmax in ICR mouse at 1 mg/kg, iv measured upto 24 hrs by LC-MS/MS analysis; type: ADME, organism-based; conditions: in vivo
BMMC [27] = experiment: Anti-osteoclastogenesis activity in M-CSF/RANKL-induced C57BL/6J mouse BMMC cells assessed as inhibition of Itgb3 gene expression by RNA sequencing analysis; type: functional, cell-based
[28] = Terminal elimination half life in ICR mouse at 10 mg/kg, po measured upto 24 hrs by LC-MS/MS analysis; type: ADME, organism-based; conditions: in vivo, read-out: beta t1/2 (converted)
BMMC [29] = experiment: Anti-osteoclastogenesis activity in M-CSF/RANKL-induced C57BL/6J mouse BMMC cells assessed as inhibition of MMP9 gene expression by RNA sequencing analysis; type: functional, cell-based
[30] = Terminal elimination half life in ICR mouse at 1 mg/kg, iv measured upto 24 hrs by LC-MS/MS analysis; type: ADME, organism-based; conditions: in vivo, read-out: beta t1/2 (converted)
[31] = AUC (0 to infinity) in ICR mouse at 1 mg/kg, iv measured upto 24 hrs by LC-MS/MS analysis; type: ADME, organism-based; conditions: in vivo
BMMC [32] = experiment: Anti-osteoclastogenesis activity in M-CSF/RANKL-induced C57BL/6J mouse BMMC cells assessed as inhibition of lilra5 gene expression by RNA sequencing analysis; type: functional, cell-based
BMMC [33] = experiment: Anti-osteoclastogenesis activity in M-CSF/RANKL-induced C57BL/6J mouse BMMC cells assessed as reduction in MMP9 protein expression measured after 3 days by Western blot analysis; type: functional, cell-based; conditions: dose 0.05-5 µM, time 3.0 day

**Q.** For `CCNC(=O)[C@@H](C)[C@H]1CC[C@H]2[C@@H]3CC=C4C(C)(C)c5nnsc5C[C@]4(C)[C@H]3CC[C@]12C`, which Activity (BMMC [1]) is on record?
**A.** Active

**Q.** What about the Activity (BMMC [2]) of the same compound?
**A.** Dose-Dependent Effect

**Q.** What about the Activity (Mus musculus [3]) of the same compound?
**A.** 61.09%

**Q.** And the Activity (BMMC [4])?
**A.** ~100%

**Q.** What about the inhibition at 0.1 µM (BMMC [5]) of the same compound?
**A.** 10.9%

**Q.** What about the Activity (Mus musculus [6]) of the same compound?
**A.** 48.64%

**Q.** And the Cmax [7]?
**A.** 484 ng/mL

**Q.** And the Activity (BMMC [8])?
**A.** Active

**Q.** What about the Activity (Mus musculus [9]) of the same compound?
**A.** Active

**Q.** What about the Activity (BMMC [10]) of the same compound?
**A.** Active

**Q.** And the Activity (BMMC [11])?
**A.** Active

**Q.** What about the Vd [12] of the same compound?
**A.** 4.85 L/kg

**Q.** What about the IC50 (BMMC [13]) of the same compound?
**A.** 52 nM

**Q.** What about the “Ratio IC50” value (BMMC [14]) of the same compound?
**A.** 45

**Q.** What about the Activity (Mus musculus [15]) of the same compound?
**A.** Active

**Q.** And the Activity (BMMC [16])?
**A.** 50%

**Q.** What about the Activity (BMMC [17]) of the same compound?
**A.** Active

**Q.** What about the inhibition at 1 µM (BMMC [18]) of the same compound?
**A.** 100%

**Q.** What about the Activity (BMMC [19]) of the same compound?
**A.** Active

**Q.** And the Activity (BMMC [20])?
**A.** Active

**Q.** And the inhibition at 0.1 µM (BMMC [21])?
**A.** 82.8%

**Q.** What about the inhibition at 0.1 µM (BMMC [22]) of the same compound?
**A.** 73.1%

**Q.** And the Activity (BMMC [23])?
**A.** Active

**Q.** And the Activity (BMMC [24])?
**A.** Active

**Q.** And the Activity (BMMC [25])?
**A.** Active

**Q.** What about the Tmax [26] of the same compound?
**A.** 4.8 min

**Q.** And the Activity (BMMC [27])?
**A.** Active

**Q.** What about the half-life [28] of the same compound?
**A.** 1.79 h

**Q.** What about the Activity (BMMC [29]) of the same compound?
**A.** Active

**Q.** What about the half-life [30] of the same compound?
**A.** 1.76 h

**Q.** And the AUC(0-inf) [31]?
**A.** 526 ng·h/mL

**Q.** What about the Activity (BMMC [32]) of the same compound?
**A.** Active

**Q.** What about the Activity (BMMC [33]) of the same compound?
**A.** Dose-Dependent Effect
